Legend:
[1] = tested on: isolated portal vein preparation / paced isolated papillary heart muscle preparation; test: Specificity towards smooth muscle relaxation: isolated portal vein versus paced papillary heart muscle in an organ bath; set-up: species or system Wistar rats; conditions: separation value: averaged difference of -log ED50 portal vein (vasodilatation) and -log ED50 papillary muscle (myocardial depression), transformed into numeric format
Description: The specificity towards smooth muscle relaxation was examined as follows: The isolated portal vein preparation of Wistar rats was mounted in an organ bath together with a paced isolated papillary heart muscle preparation of the same animal. The integrated contractile activity of the portal vein smooth muscle and the peak force amplitude of the papillary, myocardial, preparation were recorded. The respective activities during a 30 min control period were set as 100 per cent and the ensuing activities under the influence of an agent under study were expressed as a percentage thereof. The agent was administered at 10 min intervals and the potency for vasodilatation (-log ED50 of portal vein) and that of myocardial depression (-log ED50 of ^pa^pill- ary muscle) were determined by interpolation from the concentration-effect relationships determined in each experiment. A "separation" value was determined for each compound by averaging the differences of the -log ED50 values for vasodilatation and myocardial depression, respectively, ogtained in the experiments. This logarithmic separation value was transformed into numeric format and entered into table 2.

[2] = tested on: spontaneously hypertensive rats (SHR) of the Okamoto strain; test: Antihypertensive effect in conscious, unrestrained spontaneously hypertensive rats, oral cumulative dosing; format: in vivo; conditions: Rattus norvegicus; dose giving 20 per cent reduction of mean arterial BP, by interpolation; oral intubation in methocel, cumulated doses 1, 5 and 25 µmoles/kg at 2 hour intervals
Description: The antihypertensive effect of the compounds was tested in conscious, unrestrained spontaneously hypertensive rats (SHR) of the Okamoto strain. The animals had been prepared by prior implantation of indwelling catheters in the abdominal aorta via the femoral artery. Mean arterial blood pressure (MABP) and heart rate were continuously monitored. After a 2 hour control period the compound under study was administered by oral intubation at 2 hour intervals, suspended in methocel solution (5 ml/kg bodyweight). The cumulated doses were 1, 5 and 25)jmoles/kg bodyweight. The antihypertensive response, i.e. the BP'reduction to each dose, was expressed as a percentage of the initial control BP level and plotted against the dose on a logarithmic scale. The dose which would give 20 per cent BP reduction was then determined by interpolation.

CCN(CC)CCSCCOC(=O)C1=C(C)NC(C)=C(C(=O)OC)C1c1cccc(Cl)c1Cl (stereo not drawn) [Compound 8]
Ratio heart vasc. [1]: 4 | ED20 [2]: 6 µmol/kg

COC(=O)C1=C(C)NC(C)=C(C(=O)OCCSCCCN(C)C)C1c1cccc(Cl)c1Cl (stereo not drawn) [Compound 11, 2,6-dimethyl-4-(2,3-dichlorophenyl)-1,4-dihydropyridine--3,5-dicarboxylic acid-3-[2-(3-N,N-dimethylaminopropylthio)-ethyl]-5-methyl ester]
Ratio heart vasc. [1]: 3

COC(=O)C1=C(C)NC(C)=C(C(=O)OCCSCCN(Cc2ccccc2)C(C)C)C1c1cccc(Cl)c1Cl (stereo not drawn) [Compound 10]
Ratio heart vasc. [1]: 22 | ED20 [2]: 9 µmol/kg

COC(=O)C1=C(C)NC(C)=C(C(=O)OCCSCCN(C)C)C1c1cccc(C#N)c1 (stereo not drawn) [Compound 3, 2,6-dimethyl-4-(3-cyanophenyl)-1,4-dihydropyridine-3,5--dicarboxylic acid-3-[2-(2-N,N-dimethylaminoethylthio)ethyl)--5-methyl ester]
Ratio heart vasc. [1]: 18 | ED20 [2]: 50 µmol/kg

COC(=O)C1=C(C)NC(C)=C(C(=O)OCCSCCN2CCOCC2)C1c1cccc(Cl)c1Cl (stereo not drawn) [Compound 9, 2,6-dimethyl-4-(2,3-dichlorophenyl)-1,4-dihydropyridine--3,5-dicarboxylic acid-3-[2-(2-morpholinoethylthio)-ethyl]--5-methyl ester]
Ratio heart vasc. [1]: 27 | ED20 [2]: 5 µmol/kg

COC(=O)C1=C(C)NC(C)=C(C(=O)OCCSCCN(C)C)C1c1cccc([N+](=O)[O-])c1 (stereo not drawn) [Compound 1, 2,6-dimethyl-4-(3-nitrophenyl)-1,4-dihydropyridine-3,5--dicarboxylic acid-3-[2-(N,N-dimethylaminoethylthio)ethyl]--5-methyl ester]
Ratio heart vasc. [1]: 30 | ED20 [2]: 16 µmol/kg

COCCOC(=O)C1=C(C)NC(C)=C(C(=O)OCCSCCN(C)C)C1c1cccc(Cl)c1Cl (stereo not drawn) [Compound 7, 2,6-dimethyl-4-(2,3-dichlorophenyl)-1,4-dihydropyridine--3,5-dicarboxylic acid-3-[2-(2-N,N-dimethylaminoetylthio-ethyl]-5-12-methoxyethyl) ester]
Ratio heart vasc. [1]: 20 | ED20 [2]: 56 µmol/kg

COCCOC(=O)C1=C(C)NC(C)=C(C(=O)OCCSCCN2CCOCC2)C1c1cccc(Cl)c1Cl (stereo not drawn) [Compound 13, 2,6-dimethyl-4-(2,3-dichlorophenyl)-1,4-dihydropyridine-3,5-dicarboxylic acid-3-[2-(2-morpholinoethyl-thio)ethyl]-5-(2-methoxethyl) ester]
Ratio heart vasc. [1]: 70 | ED20 [2]: 15 µmol/kg

COC(=O)C1=C(C)NC(C)=C(C(=O)OC)C1c1ccccc1[N+](=O)[O-] [Nifedipine, 2,6-dimethyl-4-(2-nitrophenyl)-1,4-dihydropyridine-3,5-dicarboxylic acid-3,5-dimethylester, reference compound]
Ratio heart vasc. [1]: 15 | ED20 [2]: 5 µmol/kg

COCCOC(=O)C1=C(C)NC(C)=C(C(=O)OCCSCCN(Cc2ccccc2)C(C)C)C1c1cccc(Cl)c1Cl (stereo not drawn) [Compound 12, 2,6-dimethyl-4-(2,3-dichlorophenyl)-1,4-dihydropyridine--3,5-dicarboxylic acid-3-[2-(2-N-isopropyl-N-benzylethyl-thio)ethyl]-5-(2-methoxyethyl) ester]
Ratio heart vasc. [1]: 50 | ED20 [2]: 26 µmol/kg

CC1=C(C(=O)OCCSCCN(C)C)C(c2cccc(Cl)c2Cl)C(C(=O)OC(C)C)=C(C)N1 (stereo not drawn) [Compound 5, 2,6-dimethyl-4-(2,3-dichlorophenyl)-1,4-dihydropyridine--3,5-dicarboxylic acid-3-[2-(2-N,N-dimethylaminoethylthio)-ethyl)-5-(2-methylethyl)ester]
Ratio heart vasc. [1]: 19 | ED20 [2]: 20 µmol/kg

COC(=O)C1=C(C)NC(C)=C(C(=O)OCCSCCN(C)C)C1c1ccccc1[N+](=O)[O-] (stereo not drawn) [Compound 2, 2,6-dimethyl-4-(2-nitrophenyl)-1,4-dihydropyridine-3,5--dicarboxylic acid-3-[2-(2-N,N-dimethylaminoethylthio)ethyl]--5-methyl ester]
Ratio heart vasc. [1]: 5 | ED20 [2]: 30 µmol/kg

CCOC(=O)C1=C(C)NC(C)=C(C(=O)OCCSCCN(C)C)C1c1cccc(Cl)c1Cl (stereo not drawn) [Compound 6, 2,6-dimethyl-4-(2,3-dichlorophenyl]-1,4-dihydropyridine--3,5-dicarboxylic acid-3-[2-(2-N,N-dimethylaminoethylthio)-ethyl]-5-ethyl ester]
Ratio heart vasc. [1]: 16 | ED20 [2]: 25 µmol/kg

COC(=O)C1=C(C)NC(C)=C(C(=O)OCCSCCN(C)C)C1c1cccc(Cl)c1Cl (stereo not drawn) [Compound 4, 2,6-dimethyl-4-(2,3-dichlorophenyl)-1,4-dihydropyridine-3,5-dicarboxylic acid-3-[2-(2-N,N-dimethyl-aminoethylthio)ethyl]-5-methyl ester]
Ratio heart vasc. [1]: 3 | ED20 [2]: 19 µmol/kg

Reference: patent EP0095451A2, “Novel dihydropyridines” (priority 1982, dated 1983)
